Assay results reported in US7470684B2, “Spiropiperidine derivatives as NK3 antagonists” (Hoffmann-La Roche Inc., priority 2007, dated 2008).
Read-outs that look alike come from different tables or passages of the source.

Biological target: T1, human NK3 receptor (Homo sapiens, UniProt P29371)
T1 construct: expressed in transfected cells; host or cells: HEK293 cells, transiently transfected; membranes
T1 sequence (P29371 1-465): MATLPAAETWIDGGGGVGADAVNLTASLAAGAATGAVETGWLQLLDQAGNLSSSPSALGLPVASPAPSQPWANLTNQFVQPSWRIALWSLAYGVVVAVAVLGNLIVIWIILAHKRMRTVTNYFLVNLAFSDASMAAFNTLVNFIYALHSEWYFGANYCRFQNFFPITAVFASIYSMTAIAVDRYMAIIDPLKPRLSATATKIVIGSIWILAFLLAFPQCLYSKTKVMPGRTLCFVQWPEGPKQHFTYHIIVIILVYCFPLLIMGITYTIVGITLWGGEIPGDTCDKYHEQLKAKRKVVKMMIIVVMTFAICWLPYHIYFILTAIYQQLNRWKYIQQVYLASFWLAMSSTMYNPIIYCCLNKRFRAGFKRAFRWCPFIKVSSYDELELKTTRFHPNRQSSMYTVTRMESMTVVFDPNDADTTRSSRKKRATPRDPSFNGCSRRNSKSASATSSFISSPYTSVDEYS
Assay: [3H]SR142801 competition binding assay
Outline: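 Membranes from HEK293 cells transiently expressing human NK3 receptor incubated 75 min at RT with [3H]SR142801 at its KD and compound (0.0003-10 μM) in pH 7.4 Tris/MnCl2 buffer. Filtration and scintillation counting, nonspecific binding with 10 μM SB222200. IC50 from Hill fit, Ki by Cheng-Prusoff, duplicates.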

[1] = hNK3 Ki, [3H]SR142801 displacement, membranes of HEK293 cells transiently expressing recombinant human NK3 receptor
[2] = [3H]SR142801 displacement, membranes of HEK293 cells transiently expressing recombinant human NK3 receptor, read-out: hNK3 Ki

SMILES | Ki [1] | also measured
CN1C(=O)OC2(CCN(CCC(C(=O)NCc3ccc(Cl)cc3Cl)c3ccc(Cl)c(Cl)c3)CC2)c2cc(F)ccc21 (centres unmarked) [Example 87, N-(2,4-dichlorobenzyl)-2-(3,4-dichlorophenyl)-4-(6-fluoro-1-methyl-2-oxo-1,2-dihydro-1′H-spiro[3,1-benzoxazine-4,4′-piperidin]-1′-yl)butanamide] | 2.1 nM | –
CN1C(=O)OC2(CCN(CCC(C(=O)NC(c3ccc(Cl)cc3)c3nccn3C)c3ccc(Cl)c(Cl)c3)CC2)c2cc(F)ccc21 (centres unmarked) [Example 88, N-[(4-chlorophenyl)(1-methyl-1H-imidazol-2-yl)methyl]-2-(3,4-dichlorophenyl)-4-(6-fluoro-1-methyl-2-oxo-1,2-dihydro-1′H-spiro[3,1-benzoxazine-4,4′-piperidin]-1′-yl)butanamide] | – | Ki: 72.2 nM
CN(Cc1ccccc1)C(=O)C(CCN1CCC2(CC1)OC(=O)N(C)c1ccc(F)cc12)c1ccc(Cl)c(Cl)c1 (centres unmarked) [Example 89, N-benzyl-2-(3,4-dichlorophenyl)-4-(6-fluoro-1-methyl-2-oxo-1,2-dihydro-1′H-spiro[3,1-benzoxazine-4,4′-piperidin]-1′-yl)-N-methyl-butanamide] | 0.8 nM | –
CN(CCc1ccccc1)C(=O)C(CCN1CCC2(CC1)OC(=O)N(C)c1ccc(F)cc12)c1ccc(Cl)c(Cl)c1 (centres unmarked) [Example 90, 2-(3,4-dichlorophenyl)-4-(6-fluoro-1-methyl-2-oxo-1,2-dihydro-1′H-spiro[3,1-benzoxazine-4,4′-piperidin]-1′-yl)-N-metyl-N-(2-phenylethyl)butanamide] | – | Ki: 8 nM
CN1C(=O)OC2(CCN(CCC(C(=O)NCc3ccccc3OC(F)(F)F)c3ccc(Cl)c(Cl)c3)CC2)c2cc(F)ccc21 (centres unmarked) [Example 91, 2-(3,4-dichlorophenyl)-4-(6-fluoro-1-methyl-2-oxo-1,2-dihydro-1′H-spiro[3,1-benzoxazine-4,4′-piperidin]-1′-yl)-N-[2-(trifluoromethoxy)benzyl]butanamide] | 6.5 nM | –
CN1C(=O)OC2(CCN(CCC(C(=O)NCc3cccc(OC(F)F)c3)c3ccc(Cl)c(Cl)c3)CC2)c2cc(F)ccc21 (centres unmarked) [Example 92, 2-(3,4-dichlorophenyl)-N-[3-(difluoromethoxy)benzyl]-4-(6-fluoro-1-methyl-2-oxo-1,2-dihydro-1′H-spiro[3,1-benzoxazine-4,4′-piperidin]-1′-yl)butanamide] | 2.8 nM | –
CN(Cc1ccc(C(F)(F)F)cc1)C(=O)C(CCN1CCC2(CC1)OC(=O)N(C)c1ccc(F)cc12)c1ccc(Cl)c(Cl)c1 (centres unmarked) [Example 93, 2-(3,4-dichlorophenyl)-4-(6-fluoro-1-methyl-2-oxo-1,2-dihydro-1′H-spiro[3,1-benzoxazine-4,4′-piperidin]-1′-yl)-N-methyl-N-[4-(trifluoromethyl)benzyl]butanamide] | 0.6 nM | –
CN1C(=O)OC2(CCN(CCC(C(=O)NCc3ccc(-n4cccn4)cc3)c3ccc(Cl)c(Cl)c3)CC2)c2cc(F)ccc21 (centres unmarked) [Example 94, 2-(3,4-dichlorophenyl)-4-(6-fluoro-1-methyl-2-oxo-1,2-dihydro-1′H-spiro[3,1-benzoxazine-4,4′-piperidin]-1′-yl)-N-[4-(1H-pyrazol-1-yl)benzyl]butanamide] | – | Ki: 87.7 nM
CN(Cc1ccc(N2CCOCC2)cc1)C(=O)C(CCN1CCC2(CC1)OC(=O)N(C)c1ccc(F)cc12)c1ccc(Cl)c(Cl)c1 (centres unmarked) [Example 95, 2-(3,4-dichlorophenyl)-4-(6-fluoro-1-methyl-2-oxo-1,2-dihydro-1′H-spiro[3,1-benzoxazine-4,4′-piperidin]-1′-yl)-N-methyl-N-(4-morpholin-4-ylbenzyl)butanamide] | 28.8 nM | –
CN(Cc1ccc(-c2ccncc2)cc1)C(=O)C(CCN1CCC2(CC1)OC(=O)N(C)c1ccc(F)cc12)c1ccc(Cl)c(Cl)c1 (centres unmarked) [Example 97, 2-(3,4-dichlorophenyl)-4-(6-fluoro-1-methyl-2-oxo-1,2-dihydro-1′H-spiro[3,1-benzoxazine-4,4′-piperidin]-1′-yl)-N-methyl-N-(4-pyridin-4-ylbenzyl)butanamide] | – | Ki: 9.4 nM
COc1ccc(CN(C)C(=O)C(CCN2CCC3(CC2)OC(=O)N(C)c2ccc(F)cc23)c2ccc(Cl)c(Cl)c2)cc1F (centres unmarked) [Example 99, 2-(3,4-dichlorophenyl)-N-(3-fluoro-4-methoxybenzyl)-4-(6-fluoro-1-methyl-2-oxo-1,2-dihydro-1′H-spiro[3,1-benzoxazine-4,4′-piperidin]-1′-yl)-N-methyl-butanamide] | 2.4 nM | –
COc1cc(CN(C)C(=O)C(CCN2CCC3(CC2)OC(=O)N(C)c2ccc(F)cc23)c2ccc(Cl)c(Cl)c2)ccc1OC(F)F (centres unmarked) [Example 100, 2-(3,4-dichlorophenyl)-N-[4-(difluoromethoxy)-3-methoxybenzyl]-4-(6-fluoro-1-methyl-2-oxo-1,2-dihydro-1′H-spiro[3,1-benzoxazine-4,4′-piperidin]-1′-yl)-N-methyl-butanamide] | 2.6 nM | –
CN(Cc1cccc(F)c1)C(=O)C(CCN1CCC2(CC1)OC(=O)N(C)c1ccc(F)cc12)c1ccc(Cl)c(Cl)c1 (centres unmarked) [Example 101, 2-(3,4-dichlorophenyl)-N-(3-fluorobenzyl)-4-(6-fluoro-1-methyl-2-oxo-1,2-dihydro-1′H-spiro[3,1-benzoxazine-4,4′-piperidin]-1′-yl)-N-methyl-butanamide] | 1.3 nM | –
Cc1ccc(CN(C)C(=O)C(CCN2CCC3(CC2)OC(=O)N(C)c2ccc(F)cc23)c2ccc(Cl)c(Cl)c2)cc1 (centres unmarked) [Example 102, 2-(3,4-dichlorophenyl)-4-(6-fluoro-1-methyl-2-oxo-1,2-dihydro-1′H-spiro[3,1-benzoxazine-4,4′-piperidin]-1′-yl)-N-methyl-N-(4-methylbenzyl)butanamide] | – | Ki [2]: 2.1 nM
CN1C(=O)OC2(CCN(CCC(C(=O)NCc3cccc(OC(F)(F)F)c3)c3ccc(Cl)c(Cl)c3)CC2)c2cc(F)ccc21 (centres unmarked) [Example 103, 2-(3,4-dichlorophenyl)-4-(6-fluoro-1-methyl-2-oxo-1,2-dihydro-1′H-spiro[3,1-benzoxazine-4,4′-piperidin]-1′-yl)-N-[3-(trifluoromethoxy)benzyl]butanamide] | 3.7 nM | –
CN(Cc1cccc(C(F)(F)F)c1)C(=O)C(CCN1CCC2(CC1)OC(=O)N(C)c1ccc(F)cc12)c1ccc(Cl)c(Cl)c1 (centres unmarked) [Example 104, 2-(3,4-dichlorophenyl)-4-(6-fluoro-1-methyl-2-oxo-1,2-dihydro-1′H-spiro[3,1-benzoxazine-4,4′-piperidin]-1′-yl)-N-methyl-N-[3-(trifluoromethyl)benzyl]butanamide] | 1.6 nM | –
CN(Cc1ccc(F)cc1)C(=O)C(CCN1CCC2(CC1)OC(=O)N(C)c1ccc(F)cc12)c1ccc(Cl)c(Cl)c1 (centres unmarked) [Example 105, 2-(3,4-dichlorophenyl)-N-(4-fluorobenzyl)-4-(6-fluoro-1-methyl-2-oxo-1,2-dihydro-1′H-spiro[3,1-benzoxazine-4,4′-piperidin]-1′-yl)-N-methyl-butanamide] | 1 nM | –
CN1C(=O)OC2(CCN(CCC(C(=O)NCc3ccc(F)cc3)c3ccc(Cl)c(Cl)c3)CC2)c2cc(F)ccc21 (centres unmarked) [Example 106, 2-(3,4-dichlorophenyl)-N-(4-fluorobenzyl)-4-(6-fluoro-1-methyl-2-oxo-1,2-dihydro-1′H-spiro[3,1-benzoxazine-4,4′-piperidin]-1′-yl)-butanamide] | 2.7 nM | –
COc1ccc(CNC(=O)C(CCN2CCC3(CC2)OC(=O)N(C)c2ccc(F)cc23)c2ccc(Cl)c(Cl)c2)cc1 (centres unmarked) [Example 107, 2-(3,4-dichlorophenyl)-4-(6-fluoro-1-methyl-2-oxo-1,2-dihydro-1′H-spiro[3,1-benzoxazine-4,4′-piperidin]-1′-yl)-N-(4-methoxybenzyl)butanamide] | 5.4 nM | –
CN1C(=O)OC2(CCN(CCC(C(=O)NCc3cccc(C(F)(F)F)c3)c3ccc(Cl)c(Cl)c3)CC2)c2cc(F)ccc21 (centres unmarked) [Example 108, 2-(3,4-dichlorophenyl)-4-(6-fluoro-1-methyl-2-oxo-1,2-dihydro-1′H-spiro[3,1-benzoxazine-4,4′-piperidin]-1′-yl)-N-[3-(trifluoromethyl)benzyl]butanamide] | 3 nM | –
CN1C(=O)OC2(CCN(CCC(C(=O)NCc3ccc(-c4csnn4)cc3)c3ccc(Cl)c(Cl)c3)CC2)c2cc(F)ccc21 (centres unmarked) [Example 109, 2-(3,4-dichlorophenyl)-4-(6-fluoro-1-methyl-2-oxo-1,2-dihydro-1′H-spiro[3,1-benzoxazine-4,4′-piperidin]-1′-yl)-N-[4-(1,2,3-thiadiazol-4-yl)benzyl]butanamide] | – | Ki [2]: 19 nM
CN1C(=O)OC2(CCN(CCC(C(=O)NCc3ccc(OC(F)(F)F)cc3)c3ccc(Cl)c(Cl)c3)CC2)c2cc(F)ccc21 (centres unmarked) [Example 110, 2-(3,4-dichlorophenyl)-4-(6-fluoro-1-methyl-2-oxo-1,2-dihydro-1′H-spiro[3,1-benzoxazine-4,4′-piperidin]-1′-yl)-N-[4-(trifluoromethoxy)benzyl]butanamide] | 3.2 nM | –
CN1C(=O)OC2(CCN(CCC(C(=O)NCc3ccc(C#N)cc3)c3ccc(Cl)c(Cl)c3)CC2)c2cc(F)ccc21 (centres unmarked) [Example 111, N-(4-cyanobenzyl)-2-(3,4-dichlorophenyl)-4-(6-fluoro-1-methyl-2-oxo-1,2-dihydro-1′H-spiro[3,1-benzoxazine-4,4′-piperidin]-1′-yl)butanamide] | 3.1 nM | –
